Our source for the MIC and Activity values is ChEMBL document CHEMBL3608288, “Novel Chalcone-Thiazole Hybrids as Potent Inhibitors of Drug Resistant Staphylococcus aureus” (ACS Med Chem Lett, 2015).

Converted amounts (≈) assume the structure as drawn. Where only a bound is given, the exact number is not on record here.

One series has as its system Candida parapsilosis. Description: Antifungal activity against Candida parapsilosis ATCC 22019 after 16 hrs by microtiter broth dilution method. The class given is functional. The settings on record: Lodderomyces parapsilosis, ATCC 22019, 16 h.
A further series has as its system Sporothrix schenckii. The series is described as follows: Antifungal activity against Sporothrix schenckii after 16 hrs by microtiter broth dilution method. The format is functional. Background: Broth dilution looks for growth in wells or tubes with falling amounts of substance.
Another series relates to Candida albicans. The series is described as follows: Antifungal activity against Candida albicans after 16 hrs by microtiter broth dilution method. The class given is functional.
Another series concerns Pseudomonas aeruginosa. Description: Antibacterial activity against Pseudomonas aeruginosa ATCC BAA-427 after 16 hrs by microtiter broth dilution method. The format is functional. The settings on record: ATCC BAA-427, 16 h.
For series [1], the system named is Staphylococcus aureus. Description: Antibacterial activity against methicillin/gentamicin-resistant Staphylococcus aureus ATCC 33592 after 16 hrs by microtiter broth dilution method. The class given is functional. The settings on record: ATCC 33592, 16 h.
A further series relates to Klebsiella pneumoniae. The series is described as follows: Antibacterial activity against Klebsiella pneumoniae ATCC 27736 after 16 hrs by microtiter broth dilution method. The class given is functional. To be noted: ATCC 27736, 16 h.
The subject of a further series is Escherichia coli. Description: Antibacterial activity against Escherichia coli ATCC 9637 after 16 hrs by microtiter broth dilution method. The format is functional. To be noted: W.
The test system of series [2] is Trichophyton mentagrophytes. Description: Antifungal activity against Trichophyton mentagrophytes after 16 hrs by microtiter broth dilution method. The format is functional.
Series [3] concerns Staphylococcus aureus. Description: Antibacterial activity against Staphylococcus aureus ATCC 25923 after 16 hrs by microtiter broth dilution method. To be noted: ATCC 25923, 16 h. The class given is functional.
In series [4] the test system is Staphylococcus aureus. The series is described as follows: Antibacterial activity against […] Staphylococcus aureus ATCC 29213 after 16 hrs by microtiter broth dilution method. The format is functional. To be noted: ATCC 29213, 16 h.
The test system of series [5] is Staphylococcus aureus. The series is described as follows: Antibacterial activity against methicillin-resistant Staphylococcus aureus ATCC 700699 after 16 hrs by microtiter broth dilution method. The format is functional. To be noted: ATCC 700699, 16 h.
For the next series, the system named is Aspergillus fumigatus. The series is described as follows: Antifungal activity against Aspergillus fumigatus after 16 hrs by microtiter broth dilution method. The class given is functional.
For the next series, the system named is Cryptococcus neoformans. Description: Antifungal activity against Cryptococcus neoformans after 16 hrs by microtiter broth dilution method. The class given is functional.
Series [6] is described as follows: Hemolytic activity in human RBC at 100 ug/ml after 1 hr. The settings on record: erythrocyte.

Consider `CN[C@H](CC(C)C)C(=O)N[C@H]1C(=O)N[C@@H](CC(N)=O)C(=O)N[C@H]2C(=O)N[C@H]3C(=O)N[C@H](C(=O)N[C@H](C(=O)O)c4cc(O)cc(O)c4-c4cc3ccc4O)[C@H](O)c3ccc(c(Cl)c3)Oc3cc2cc(c3O[C@@H]2O[C@H](CO)[C@@H](O)[C@H](O)[C@H]2O[C@H]2C[C@](C)(N)[C@H](O)[C@H](C)O2)Oc2ccc(cc2Cl)[C@H]1O` [VANCOMYCIN], for which the MIC (usually the smallest concentration in the dilution series that meets the test's criterion for growth inhibition) in the series on Candida parapsilosis is 157 µM (≈ 227 µg/mL); in the series with Sporothrix schenckii, 157 µM (≈ 227 µg/mL); in the series with Candida albicans, more than 157 µM; in the series on Pseudomonas aeruginosa it was more than 157 µM; against Staphylococcus aureus [1], 2.4 µM (≈ 3.48 µg/mL); in the series on Klebsiella pneumoniae it was more than 157 µM. Further, the MIC in the series with Escherichia coli was more than 157 µM; in [2], 157 µM (≈ 227 µg/mL); in the series on Staphylococcus aureus [3], 2.4 µM (≈ 3.48 µg/mL); against Staphylococcus aureus [4], 1.2 µM (≈ 1.74 µg/mL); against Staphylococcus aureus [5], 9.8 µM (≈ 14.2 µg/mL); in the series with Aspergillus fumigatus, 157 µM (≈ 227 µg/mL). Besides, in the series with Cryptococcus neoformans, it took 157 µM (≈ 227 µg/mL) to inhibit growth (MIC).
As to `CCOC(=O)c1csc(/N=C/c2cc(/C=C/C(=O)c3ccc(OC)cc3)cc(C(C)(C)C)c2O)n1`, the MIC was more than 102 µM against Candida parapsilosis; more than 102 µM with Sporothrix schenckii; more than 102 µM against Candida albicans; more than 102 µM with Pseudomonas aeruginosa; 3.2 µM (≈ 1.58 µg/mL) against Staphylococcus aureus [1]; more than 102 µM in the series with Klebsiella pneumoniae. For the same compound, the minimum inhibitory concentration (MIC) is more than 102 µM in the series with Escherichia coli; more than 102 µM in series [2]; 12.7 µM (≈ 6.26 µg/mL) in the series with Staphylococcus aureus [3]; 12.7 µM (≈ 6.26 µg/mL) against Staphylococcus aureus [4]; 12.7 µM (≈ 6.26 µg/mL) with Staphylococcus aureus [5]; more than 102 µM with Aspergillus fumigatus. The same compound gave an MIC in the series with Cryptococcus neoformans of more than 102 µM. In [6], the Activity entry was “Non-toxic”.
As to `COc1ccc(-c2csc(/N=C/c3cc(/C=C/C(=O)c4ccc(C)cc4)cc(C(C)(C)C)c3O)n2)cc1`, the minimal inhibitory concentration (MIC) was more than 97.9 µM in the series on Candida parapsilosis; more than 97.9 µM against Sporothrix schenckii; more than 97.9 µM against Candida albicans; more than 97.9 µM in the series with Pseudomonas aeruginosa; 12.2 µM (≈ 6.23 µg/mL) against Staphylococcus aureus [1]; more than 97.9 µM against Klebsiella pneumoniae. The minimal inhibitory concentration (MIC) was more than 97.9 µM in the series on Escherichia coli; more than 97.9 µM in series [2]; 12.2 µM (≈ 6.23 µg/mL) against Staphylococcus aureus [3]; 12.2 µM (≈ 6.23 µg/mL) against Staphylococcus aureus [4]; 12.2 µM (≈ 6.23 µg/mL) in the series with Staphylococcus aureus [5]; more than 97.9 µM against Aspergillus fumigatus. The same compound showed an MIC against Cryptococcus neoformans of more than 97.9 µM. Also, the Activity result in series [6] is “Non-toxic”.
As to `CCOC(=O)c1csc(/N=C/c2cc(/C=C/C(=O)c3ccc(C)cc3)cc(C(C)C)c2O)n1`, the MIC in the series on Candida parapsilosis is more than 108 µM; in the series with Sporothrix schenckii it was more than 108 µM; in the series on Candida albicans, more than 108 µM; against Pseudomonas aeruginosa, more than 108 µM; against Staphylococcus aureus [1] it was 13.5 µM (≈ 6.24 µg/mL); against Klebsiella pneumoniae, more than 108 µM. Moreover, the MIC is more than 108 µM with Escherichia coli; more than 108 µM in series [2]; 27 µM (≈ 12.5 µg/mL) against Staphylococcus aureus [3]; 13.5 µM (≈ 6.24 µg/mL) with Staphylococcus aureus [4]; 13.5 µM (≈ 6.24 µg/mL) against Staphylococcus aureus [5]; more than 108 µM against Aspergillus fumigatus. This compound also registered an MIC with Cryptococcus neoformans of more than 108 µM. The Activity entry in series [6] was “Non-toxic”.
On to `CCCc1cc(/C=C/C(=O)c2ccco2)cc(/C=N/c2nc(C(=O)OCC)cs2)c1O`, for which the MIC with Candida parapsilosis was more than 102 µM; against Sporothrix schenckii it was more than 102 µM; against Candida albicans, more than 102 µM; in the series on Pseudomonas aeruginosa, more than 102 µM; against Staphylococcus aureus [1], 51.2 µM (≈ 22.5 µg/mL); in the series on Klebsiella pneumoniae, more than 102 µM. The MIC in the series on Escherichia coli was more than 102 µM; in series [2], more than 102 µM; against Staphylococcus aureus [3], 51.2 µM (≈ 22.5 µg/mL); against Staphylococcus aureus [4], 51.2 µM (≈ 22.5 µg/mL); against Staphylococcus aureus [5], 51.2 µM (≈ 22.5 µg/mL); against Aspergillus fumigatus it was more than 102 µM. The minimum inhibitory concentration (MIC) against Cryptococcus neoformans is more than 102 µM. In addition, the Activity entry in [6] is listed as “Non-toxic”.
Take `C[C@@H]1[C@H](O)[C@@H](C)/C=C/C=C/C=C/C=C/C=C/C=C/C=C/[C@H](O[C@@H]2O[C@H](C)[C@@H](O)[C@H](N)[C@@H]2O)C[C@@H]2O[C@](O)(C[C@@H](O)C[C@@H](O)[C@H](O)CC[C@@H](O)C[C@@H](O)CC(=O)O[C@H]1C)C[C@H](O)[C@H]2C(=O)O` [AMPHOTERICIN B]: the MIC is 0.3 µM (≈ 0.277 µg/mL) in the series with Sporothrix schenckii; more than 54.1 µM in the series with Pseudomonas aeruginosa; more than 54.1 µM in the series with Staphylococcus aureus [1]; more than 54.1 µM with Klebsiella pneumoniae; more than 54.1 µM against Escherichia coli; 0.3 µM (≈ 0.277 µg/mL) in series [2]. For the same compound, the MIC against Staphylococcus aureus [3] is more than 54.1 µM; with Staphylococcus aureus [4], more than 54.1 µM; against Staphylococcus aureus [5], more than 54.1 µM; with Aspergillus fumigatus, 0.5 µM (≈ 0.462 µg/mL); against Cryptococcus neoformans, 0.1 µM (≈ 0.0924 µg/mL).
Take `CCOC(=O)c1csc(/N=C/c2cc(/C=C/C(=O)c3ccco3)cc(C(C)(C)C)c2O)n1`: the minimum inhibitory concentration (MIC) in the series with Candida parapsilosis was more than 110 µM; in the series on Sporothrix schenckii, more than 110 µM; in the series with Candida albicans, more than 110 µM; against Pseudomonas aeruginosa it was more than 110 µM; against Staphylococcus aureus [1], 13.8 µM (≈ 6.24 µg/mL); in the series on Klebsiella pneumoniae, more than 110 µM. Further, the minimum inhibitory concentration (MIC) in the series on Escherichia coli is more than 110 µM; in [2], more than 110 µM; in the series with Staphylococcus aureus [3], 13.8 µM (≈ 6.24 µg/mL); with Staphylococcus aureus [4], 13.8 µM (≈ 6.24 µg/mL); against Staphylococcus aureus [5], 13.8 µM (≈ 6.24 µg/mL); against Aspergillus fumigatus, more than 110 µM. Further, the MIC against Cryptococcus neoformans is more than 110 µM. Also, the Activity entry in [6] is “Non-toxic”.
